Consider 14 molecules from patent US20080269267A1, “KINASE INHIBITORS USEFUL FOR THE TREATMENT OF MYLEOPROLIFIC DISEASES AND OTHER PROLIFERATIVE DISEASES” (Deciphera Pharmaceuticals, LLC, priority 2007, published 2008).

Numbering of substitutions follows the chain as printed. Structures can show the parent of a compound that is named as a salt. Some results are limits rather than exact numbers.

Experiment [1] has as its target T1, T315I Abl kinase (SEQ ID NO:2) (Homo sapiens, UniProt P00519, T315I).
T1 construct: purchased deCode Genetics
T1 sequence (P00519 with tags, fused parts or gaps T315I): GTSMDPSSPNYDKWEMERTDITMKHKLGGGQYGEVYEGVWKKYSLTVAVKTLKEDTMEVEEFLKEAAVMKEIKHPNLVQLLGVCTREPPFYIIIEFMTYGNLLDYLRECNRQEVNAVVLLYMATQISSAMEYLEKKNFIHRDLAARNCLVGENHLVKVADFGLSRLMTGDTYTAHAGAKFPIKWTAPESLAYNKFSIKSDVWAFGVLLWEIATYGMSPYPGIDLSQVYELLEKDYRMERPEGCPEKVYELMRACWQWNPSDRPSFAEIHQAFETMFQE
Nature of the experiment: T315I Abl kinase assay (pyruvate kinase/lactate dehydrogenase coupled). To be noted: 1 h preincubation at 30° C., ATP 500 μM; read-out: Abl T315l Enzyme Assay, biochemical IC50. Here is the method:
Abl Kinase (SEQ ID NO:2) Assay
Activity of T315I Abl kinase (SEQ ID NO:2) was determined by following the production of ADP from the kinase reaction through coupling with the pyruvate kinase/lactate dehydrogenase system (e.g., Schindler, et al. Science (2000) 289, 1938-1942). In this assay, the oxidation of NADH (thus the decrease at A340nm) was continuously monitored spectrophometrically. The reaction mixture (100 μl) contained Abl kinase (4.4 nM. […] Abl from deCode Genetics), peptide substrate (EAIYAAPFAKKK, 0.2 mM), MgCl2 (10 mM), pyruvate kinase (4 units), lactate dehydrogenase (0.7 units), phosphoenol pyruvate (1 mM), and NADH (0.28 mM) in 90 mM Tris buffer containing 0.2% octyl-glucoside and 1% DMSO, pH 7.5. Test compounds were incubated with T315I Abl (SEQ ID NO:2) and other reaction reagents at 30° C. for 1 h before ATP (500 μM) was added to start the reaction. The absorption at 340 nm was monitored continuously for 2 hours at 30° C. on Polarstar Optima plate reader (BMG). The reaction rate was calculated using the 1.0 to 2.0 h time frame. Percent inhibition was obtained by comparison of reaction rate with that of a control (i.e. with no test compound). IC50 values were calculated from a series of percent inhibition values determined at a range of inhibitor concentrations using software routines as implemented in the GraphPad Prism software package.

A further experiment deals with T2, Abl kinase (SEQ ID NO:1) (Homo sapiens, UniProt P00519).
T2 construct: purchased deCode Genetics
T2 sequence (P00519 with tags, fused parts or gaps): T1 sequence (P00519 with tags, fused parts or gaps T315I) with I94T
Put plainly: Abl kinase assay (pyruvate kinase/lactate dehydrogenase coupled, ADP production). To be noted: 2 h preincubation at 30° C., ATP 500 μM; read-out: Abl Enzyme Assay, biochemical IC50. The protocol: Abl Kinase (SEQ ID NO:1) Assay
Activity of Abl kinase (SEQ ID NO:1) was determined by following the production of ADP from the kinase reaction through coupling with the pyruvate kinase/lactate dehydrogenase system (e.g., Schindler, et al. Science (2000) 289, 1938-1942). In this assay, the oxidation of NADH (thus the decrease at A340nm) was continuously monitored spectrophometrically. The reaction mixture (100 μl) contained Abl kinase (1 nM. Abl from deCode Genetics), peptide substrate (EAIYAAPFAKKK. 0.2 mM), MgCl2 (10 mM), pyruvate kinase (4 units), lactate dehydrogenase (0.7 units), phosphoenol pyruvate (1 mM), and NADH (0.28 mM) in 90 mM Tris buffer containing 0.2% octyl-glucoside and 3.5% DMSO, pH 7.5. Test compounds were incubated with Abl (SEQ ID NO:1) and other reaction reagents at 30° C. for 2 h before ATP (500 μM) was added to start the reaction. The absorption at 340 nm was monitored continuously for 2 hours at 30° C. on Polarstar Optima plate reader (BMG). The reaction rate was calculated using the 1.0 to 2.0 h time frame. Percent inhibition was obtained by comparison of reaction rate with that of a control (i.e. with no test compound). IC50 values were calculated from a series of percent inhibition values determined at a range of inhibitor concentrations using software routines as implemented in the GraphPad Prism software package.

For experiment [2], the target named is T3, BaF3 cells transfected with T315I p210 BCR-Abl (Homo sapiens, UniProt P00519, T315I, cells depend on it).
T3 construct: fused on or other part: P11274 (Breakpoint cluster region protein)
Put plainly: Ba/F3 p210 T315I whole cell proliferation assay (Cell Titer Blue, 72 hours). Format: cell-based. Particulars: 72 hours incubation; read-out: Ba/F3 p210 T315I whole cell proliferation assay, antiproliferation IC50. The protocol: BaF3 cells (parental or transfected with the following: wild type p210 BCR-Abl and T315I p210 BCR-Abl was obtained from Professor Richard Van Etten (New England Medical Center, Boston, Mass.). Briefly, cells were grown in RPMI 1640 supplemented with 10% characterized fetal bovine serum (HyClone, Logan, Utah) at 37 degrees Celsius, 5% CO2, 95% humidity. Cells were allowed to expand until reaching 80% saturation at which point they were subcultured or harvested for assay use.
A serial dilution of test compound was dispensed into a 96 well black clear bottom plate (Corning, Corning, N.Y.). For each cell line, three thousand cells were added per well in complete growth medium. Plates were incubated for 72 hours at 37 degrees Celsius, 5% CO2, 95% humidity. At the end of the incubation period Cell Titer Blue (Promega, Madison, Wis.) was added to each well and an additional 4.5 hour incubation at 37 degrees Celsius, 5% CO2, 95% humidity was performed. Plates were then read on a BMG Fluostar Optima (BMG, Durham, N.C.) using an excitation of 544 nm and an emission of 612 nm. Data was analyzed using Prism software (Graphpad, San Diego, Calif.) to calculate IC50's.

Broadly, the IC50 is the concentration that inhibits the measured activity by half. For the molecule “1-(2-tert-butyl-4-(pyridin-3-yl)pyrimidin-5-yl)-3-(2-fluoro-5-(8-methyl-2-(methylamino)-7-oxo-7,8-dihydropyrido[2,3-d]pyrimidin-6-yl)phenyl)urea [Example 10]”, the half-maximal inhibitory concentration (IC50) is less than 100000 nM in experiment [1] and less than 100 nM at Abl kinase (SEQ ID NO:1). Also, the GI50 in experiment [2] was less than 100 nM.
As to `CC(C)c1cc(NC(=O)Nc2ccc(Oc3ccnc(-c4cnn(C)c4)c3)cc2F)n(-c2cccc(C#N)c2)n1` [Example 2, 1-(1-(3-cyanophenyl)-3-isopropyl-1H-pyrazol-5-yl)-3-(2-fluoro-4-(2-(1-methyl-1H-pyrazol-4-yl)pyridin-4-yloxy)phenyl)urea], the half-inhibitory concentration (IC50) (in experiment [1]; at Abl kinase (SEQ ID NO:1)) was less than 100 nM in each case. Besides, the GI50 in experiment [2] was less than 100 nM.
On to `CC(C)(C)c1cc(NC(=O)Nc2ccc(Oc3ccnc(-c4cn[nH]c4)c3)cc2F)n(-c2cccc(C#N)c2)n1` [Example 3, 1-(4-(2-(1H-pyrazol-4-yl)pyridin-4-yloxy)-2-fluorophenyl)-3-(3-tert-butyl-1-(3-cyanophenyl-1H-pyrazol-5-yl)urea hydrochloride], for which the IC50 (in experiment [1]; at Abl kinase (SEQ ID NO:1)) was less than 100 nM throughout. The GI50 in experiment [2] is less than 100 nM.
With `Cn1cc(-c2cc(Oc3ccc(NC(=O)Nc4cc(C(C)(C)C)nn4-c4cccc(C#N)c4)c(F)c3)ccn2)cn1` [Example 4, 1-(3-tert-butyl-1-(3-cyanophenyl)-1H-pyrazol-5-yl)-3-(2-fluoro-4-(2-(1-methyl-1H-pyrazol-4-yl)pyridin-4-yloxy)phenyl)urea hydrochloride], the IC50 (in experiment [1]; on Abl kinase (SEQ ID NO:1)) was less than 100 nM in each case. Moreover, the GI50 in experiment [2] is less than 100 nM.
On to `CC(C)c1cc(NC(=O)Nc2ccc(Oc3ccnc(-c4cnn(C)c4)c3)cc2F)n(-c2ccc(F)c(C#N)c2)n1` [Example 5, 1-(1-(3-cyano-4-fluorophenyl)-3-isopropyl-1H-pyrazol-5-yl)-3-(2-fluoro-4-(2-(1-methyl-1H-pyrazol-4-yl)pyridin-4-yloxy)phenyl)urea], for which the concentration for half-maximal inhibition (IC50) (in experiment [1]; on Abl kinase (SEQ ID NO:1)) was less than 100 nM in each case. In addition, in experiment [2], the GI50 was less than 100 nM.
Turning to `Cn1cc(-c2cc(Oc3ccc(NC(=O)Nc4cc(C(C)(C)C)nn4-c4ccc(C#N)cc4)c(F)c3)ccn2)cn1` [Example 6, 1-(3-tert-butyl-1-(4-cyanophenyl)-1H-pyrazol-5-yl)-3-(2-fluoro-4-(2-(1-methyl-1H-pyrazol-4-yl)pyridin-4-yloxy)phenyl)urea], the IC50 (in experiment [1]; on Abl kinase (SEQ ID NO:1)) was less than 100 nM in each case. The GI50 in experiment [2] is less than 100 nM.
Regarding `Cn1cc(-c2cc(Oc3ccc(NC(=O)Nc4cc(C(C)(C)C)nn4-c4cccc(CO)c4)c(F)c3)ccn2)cn1` [Example 7, 1-(3-tert-butyl-1-(3-(hydroxymethyl)phenyl)-1H-pyrazol-5-yl)-3-(2-fluoro-4-(2-(1-methyl-1H-pyrazol-4-yl)pyridin-4-yloxy)phenyl)urea p-toluenesulfonic acid], the half-inhibitory concentration (IC50) (in experiment [1]; on Abl kinase (SEQ ID NO:1)) was less than 100 nM throughout. Further, in experiment [2], the GI50 was less than 100 nM.
As to `Cn1cc(-c2cc(Oc3ccc(NC(=O)Nc4cc(C(C)(C)C)nn4-c4ccc(CO)cc4)c(F)c3)ccn2)cn1` [Example 8, 1-(3-tert-butyl-1-(4-(hydroxymethyl)phenyl)-1H-pyrazol-5-yl)-3-(2-fluoro-4-(2-(1-methyl-1H-pyrazol-4-yl)pyridin-4-yloxy)phenyl)urea], the concentration for half-maximal inhibition (IC50) (in experiment [1]; on Abl kinase (SEQ ID NO:1)) was less than 100 nM each time. In experiment [2], the GI50 was less than 100 nM.
Turning to `CCc1cc(NC(=O)Nc2ccc(Oc3ccnc(-c4cnn(C)c4)c3)cc2F)n(-c2cccc(C#N)c2)n1` [Example 9, 1-(1-(3-cyanophenyl)-3-ethyl-1H-pyrazol-5-yl)-3-(2-fluoro-4-(2-(1-methyl-1H-pyrazol-4-yl)pyridin-4-yloxy)phenyl)urea], the IC50 (in experiment [1]; at Abl kinase (SEQ ID NO:1)) was less than 100 nM throughout. The GI50 in experiment [2] is less than 100 nM.
Regarding `Cc1ccc(-n2nc(C(C)C)cc2NC(=O)Nc2ccc(Oc3ccnc(-c4cnn(C)c4)c3)cc2F)cc1C#N` [Example 11, 1-(1-(3-cyano-4-methylphenyl)-3-isopropyl-1H-pyrazol-5-yl)-3-(2-fluoro-4-(2-(1-methyl-1H-pyrazol-4-yl)pyridin-4-yloxy)phenyl)urea], the IC50 (in experiment [1]; on Abl kinase (SEQ ID NO:1)) was less than 100 nM throughout. Further, the GI50 in experiment [2] was less than 100 nM.
`Cc1c(Oc2ccnc(-c3cnn(C)c3)c2)ccc(NC(=O)Nc2cc(C(C)C)nn2-c2cccc(C#N)c2)c1F` [Example 12, 1-(1-(3-cyanophenyl)-3-isopropyl-1H-pyrazol-5-yl)-3-(2-fluoro-3-methyl-4-(2-(1-methyl-1H-pyrazol-4-yl)pyridin-4-yloxy)phenyl)urea]: the IC50 (in experiment [1]; at Abl kinase (SEQ ID NO:1)) was less than 100 nM each time. Moreover, in experiment [2], the GI50 was less than 100 nM.
As to `CC(C)c1cc(NC(=O)Nc2ccc(Oc3ccnc(-c4cnn(C)c4)c3)c(F)c2F)n(-c2cccc(C#N)c2)n1` [Example 13, 1-(1-(3-cyanophenyl)-3-isopropyl-1H-pyrazol-5-yl)-3-(2,3-difluoro-4-(2-(1-methyl-1H-pyrazol-4-yl)pyridin-4-yloxy)phenyl)urea], the IC50 (in experiment [1]; at Abl kinase (SEQ ID NO:1)) was less than 100 nM in each case. Also, the GI50 in experiment [2] is less than 100 nM.
As for `Cc1ncc(NC(=O)Nc2ccc(Oc3ccnc(-c4cnn(C)c4)c3)cc2F)c(-c2ccccc2)n1` [Example 14, 1-(2-fluoro-4-(2-(1-methyl-1H-pyrazol-4-yl)pyridin-4-yloxy)phenyl)-3-(2-methyl-4-phenylpyrimidin-5-yl)urea], the half-maximal inhibitory concentration (IC50) in experiment [1] was less than 100000 nM; on Abl kinase (SEQ ID NO:1) it was less than 100 nM. Moreover, the GI50 in experiment [2] was less than 100 nM.
Consider `CC(C)c1cc(NC(=O)Nc2ccc(Oc3ccnc(-c4cnn(C)c4)c3)c(F)c2)n(-c2cccc(C#N)c2)n1` [Example 16, 1-(1-(3-cyanophenyl)-3-isopropyl-1H-pyrazol-5-yl)-3-(3-fluoro-4-(2-(1-methyl-1H-pyrazol-4-yl)pyridin-4-yloxy)phenyl)urea], for which the IC50 (in experiment [1]; at Abl kinase (SEQ ID NO:1)) was less than 100 nM throughout. Moreover, the GI50 in experiment [2] was less than 100 nM.
